Converted amounts (≈) assume the structure as drawn.
Assays:
Format in all cases: cell-based
[1] = test system: Aspergillus niger; test: MIC, RPMI medium; details: MIC banded into grades; for MIC: Aspergillus niger, read-out: MIC grade, A. niger
Summary of the method: (§1)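 Broth microdilution in RPMI with 2% glucose, 0.135 M MOPS pH 7.0; compounds as doubling dilutions, 50-0.05 mg/L, inoculum 1−2×10^4 cfu/mL. Incubated 24-48 h at 35° C; growth by OD 485 nm. MIC is lowest concentration giving >80% growth inhibition versus drug-free control.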

[2] = test system: Aspergillus terreus AT49; test: MIC, RPMI medium; details: for MIC: Aspergillus terreus, AT49, MIC banded into grades, read-out: MIC grade, A. terreus 49
Summary of the method: as §1

[3] = test system: Aspergillus fumigatus AF210; test: MIC, RPMI medium; details: for MIC: Aspergillus fumigatus, AF210, MIC banded into grades, read-out: MIC grade, A. fumigatus 210
Summary of the method: as §1

[4] = test system: Aspergillus flavus; test: MIC, RPMI medium; details: MIC banded into grades; for MIC: Aspergillus flavus, read-out: MIC grade, A. flavus
Summary of the method: as §1

[5] = test system: Aspergillus terreus AT4; test: MIC, RPMI medium; details: for MIC: Aspergillus terreus, AT4, MIC banded into grades, read-out: MIC grade, A. terreus
Summary of the method: as §1

[6] = test system: Aspergillus fumigatus AF293; test: MIC, RPMI medium; details: for MIC: Aspergillus fumigatus, AF293, MIC banded into grades, read-out: MIC grade, A. fumigatus
Summary of the method: as §1

[7] = test system: Aspergillus niger; test: MIC, YAG medium; details: 24 h at 35° C, MIC banded into grades; for MIC: Aspergillus niger, read-out: MIC grade, A. niger
Summary of the method: (§2)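 Growth inhibition was measured by absorbance at 485 nm following 24 h at 35° C. Spores harvested after 5 days on Sabouraud agar served as inoculum (1−2×10^4 cfu/mL, YAG medium). The lowest drug level producing >70% inhibition was taken as MIC.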

[8] = test system: Aspergillus terreus AT49; test: MIC, YAG medium; details: 24 h at 35° C, MIC banded into grades; for MIC: Aspergillus terreus, read-out: MIC grade, A. terreus 49
Summary of the method: as §2

[9] = test system: Aspergillus fumigatus AF210; test: MIC, YAG medium; details: 24 h at 35° C, MIC banded into grades; for MIC: Aspergillus fumigatus, read-out: MIC grade, A. fumigatus 210
Summary of the method: as §2

[10] = test system: Aspergillus flavus; test: MIC, YAG medium; details: 24 h at 35° C, MIC banded into grades; for MIC: Aspergillus flavus, 24 h, read-out: MIC grade, A. flavus
Summary of the method: as §2

[11] = test system: Aspergillus terreus AT4; test: MIC, YAG medium; details: 24 h at 35° C, MIC banded into grades; for MIC: Aspergillus terreus, read-out: MIC grade, A. terreus
Summary of the method: as §2

[12] = test system: Aspergillus fumigatus AF293; test: MIC, YAG medium; details: 24 h at 35° C, MIC banded into grades; for MIC: Aspergillus fumigatus, read-out: MIC grade, A. fumigatus
Summary of the method: as §2

Row | SMILES | MIC [1] | MIC [2] | MIC [3] | MIC [4] | MIC [5] | MIC [6] | MIC [7] | MIC [8] | MIC [9] | MIC [10] | MIC [11] | MIC [12] | other results
1 | Cc1cc(-c2ccccc2)c(C(=O)C(=O)Nc2cccc3ncccc23)n1C [Example 32, 2-(1,5-Dimethyl-3-phenyl-1H-pyrrol-2-yl)-2-oxo-N-quinolin-5-yl-acetamide] | 1 to 10 µg/mL (≈ 2.71 to 27.1 µM) | 1 to 10 µg/mL (≈ 2.71 to 27.1 µM) | > 10 µg/mL | 1 to 10 µg/mL (≈ 2.71 to 27.1 µM) | 1 to 10 µg/mL (≈ 2.71 to 27.1 µM) | > 10 µg/mL | 1 to 10 µg/mL (≈ 2.71 to 27.1 µM) | < 1 µg/mL | 1 to 10 µg/mL (≈ 2.71 to 27.1 µM) | < 1 µg/mL | < 1 µg/mL | 1 to 10 µg/mL (≈ 2.71 to 27.1 µM) | –
2 | Cc1cc(-c2ccccc2)c(C(=O)C(=O)Nc2ccc(N3CCN(c4ccc(CN5CCOCC5)cn4)CC3)cc2)n1C [Example 120, 2-(1,5-Dimethyl-3-phenyl-1H-pyrrol-2-yl)-N-{4-[4-(5-morpholin-4-ylmethyl-pyridin-2-yl)-piperazin-1-yl]-phenyl}-2-oxo-acetamide] | < 1 µg/mL | < 1 µg/mL | < 1 µg/mL | < 1 µg/mL | < 1 µg/mL | < 1 µg/mL | < 1 µg/mL | < 1 µg/mL | < 1 µg/mL | < 1 µg/mL | < 1 µg/mL | < 1 µg/mL | –
3 | COCCn1c(C)cc(-c2ccccc2)c1C(=O)C(=O)Nc1ccc(N2CCCCC2)c(F)c1 [Example 119, N-(3-Fluoro-4-piperdin-1-yl-phenyl)-2-[1-(2-methoxy-ethyl)-5-methyl-3-phenyl-1H-pyrrol-2-yl]-2-oxo-acetamide] | – | – | – | – | – | – | – | – | – | – | – | – | MIC grade, A. niger [1]: 3 (A grade of 3 represents an MIC of less than 1 mg/L); MIC grade, A. terreus 49 ([2]; MIC banded into grades): 2 (A grade of 2 represents an MIC of from 1 to 10 mg/L); MIC grade, A. fumigatus 210 ([3]; MIC banded into grades): 3 (A grade of 3 represents an MIC of less than 1 mg/L); MIC grade, A. flavus [4]: 2 (A grade of 2 represents an MIC of from 1 to 10 mg/L); MIC grade, A. terreus ([5]; MIC banded into grades): 3 (A grade of 3 represents an MIC of less than 1 mg/L); MIC grade, A. fumigatus ([6]; MIC banded into grades): 3 (A grade of 3 represents an MIC of less than 1 mg/L); MIC grade, A. niger [7]: 3 (A grade of 3 represents an MIC of less than 1 mg/L); MIC grade, A. terreus 49 [8]: 3 (A grade of 3 represents an MIC of less than 1 mg/L); MIC grade, A. fumigatus 210 [9]: 3 (A grade of 3 represents an MIC of less than 1 mg/L); MIC grade, A. flavus [10]: 2 (A grade of 2 represents an MIC of from 1 to 10 mg/L); MIC grade, A. terreus [11]: 3 (A grade of 3 represents an MIC of less than 1 mg/L); MIC grade, A. fumigatus [12]: 3 (A grade of 3 represents an MIC of less than 1 mg/L)
4 | COCCn1c(C)cc(-c2ccccc2)c1C(=O)C(=O)Nc1ccc(N2CCN(c3ccccn3)CC2)cc1F [Example 96, N-[2-Fluoro-4-(4-pyridin-2-yl-piperazin-1-yl)-phenyl]-2-[1-(2-methoxy-ethyl)-5-methyl-3-phenyl-1H-pyrrol-2-yl]-2-oxo-acetamide] | < 1 µg/mL | 1 to 10 µg/mL (≈ 1.85 to 18.5 µM) | < 1 µg/mL | 1 to 10 µg/mL (≈ 1.85 to 18.5 µM) | < 1 µg/mL | < 1 µg/mL | < 1 µg/mL | < 1 µg/mL | < 1 µg/mL | < 1 µg/mL | < 1 µg/mL | < 1 µg/mL | –

Further lines, with some results ahead:

Row | MIC [1] | MIC [2] | MIC [3] | MIC [4] | MIC [5] | MIC [6] | MIC [7] | MIC [8] | MIC [9] | MIC [10] | MIC [11] | MIC [12] | SMILES | other results
5 | > 10 µg/mL | 1 to 10 µg/mL (≈ 1.87 to 18.7 µM) | > 10 µg/mL | > 10 µg/mL | > 10 µg/mL | > 10 µg/mL | > 10 µg/mL | < 1 µg/mL | < 1 µg/mL | > 10 µg/mL | < 1 µg/mL | > 10 µg/mL | Cc1cc(C)nc(N2CCN(c3ccc(NC(=O)C(=O)c4c(-c5ccccc5)cc(C(C)C)n4C)cc3)CC2)c1 [Example 20, N-{4-[4-(4,6-Dimethyl-pyridin-2-yl)-piperazin-1-yl]-phenyl}-2-(5-isopropyl-1-methyl-3-phenyl-1H-pyrrol-2-yl)-2-oxo-acetamide] | –
6 | < 1 µg/mL | < 1 µg/mL | < 1 µg/mL | < 1 µg/mL | < 1 µg/mL | < 1 µg/mL | < 1 µg/mL | < 1 µg/mL | < 1 µg/mL | < 1 µg/mL | < 1 µg/mL | < 1 µg/mL | Cc1cc(C)nc(N2CCN(c3ccc(NC(=O)C(=O)c4c(-c5ccccc5)cc(C)n4C)c(Cl)c3)CC2)c1 [Example 21, N-{2-Chloro-4-[4-(4,6-dimethyl-pyridin-2-yl)-piperazin-1-yl]-phenyl}-2-(1,5-dimethyl-3-phenyl-1H-pyrrol-2-yl)-2-oxo-acetamide] | –
